Data as given in US5698547A, “Cephalosporin antibiotics” (Microcide Pharmaceuticals, Inc., priority 1995, dated 1997).
Where “and” joins values, the source holds several entries; their conditions need not be identical. Equal values may be shown once. Where a name gives a salt, the structure may show the parent alone. Read-outs that look alike come from different tables or passages of the source.

Tests used:
MRSA strains = conditions: in words, reported; cited from earlier work
[1] = tested on: methicillin-susceptible S. aureus strain ATCC 13709; experiment: murine model for lethal bacteremic peritonitis; type: in vivo, female Swiss-Webster mice; conditions: subcutaneous, 72 h
Summary of the method: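 Female Swiss-Webster mice challenged IP with an LD100 titer of bacteria in 7% hog gastric mucin; groups of 10 treated SC with twofold drug increments (0.01–512 mg/kg) as two equal doses at challenge and 2 h later. Survival followed for 72 h; PD50 (total mg/kg) calculated by probit method.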

[2] = tested on: S. aureus strain ATCC 13709; experiment: Challenge strain MIC; type: cell-based; conditions: Staphylococcus aureus, ATCC13709; S. aureus ATCC 13709; read-out: Challenge str MIC
Procedure: (§1) The compounds of the invention were evaluated against several β-lactamresistant bacteria strains by determining the minimum inhibitory concentration (MIC, μg/ml) of each compound with respect to each strain. The MIC, the lowest concentration of antibiotic which inhibits growth of the test organism, was determined by the agar dilution method.
(§2) To determine the MIC for bacterial isolates, the test compound was incorporated in a series of two-fold dilutions into liquified Mueller-Hinton agar. Upon solidification, a number of different bacterial strains were spot inoculated with a replicating device onto the agar surface. […] The procedures used in these studies have been standardized by the National Committee for Clinical Laboratory Standards (NCCLS), as per the NCCLS publication entitled METHODS FOR DILUTION ANTIMICROBIAL SUSCEPTIBILITY TESTS (1991), which is incorporated herein by reference.
reported for challenge with methicillin-susceptible S. aureus

[3] = tested on: S. aureus Col (Meth^R) (lac^-); experiment: MIC by agar dilution, S. aureus Col (Meth^R) (lac^-); type: cell-based; conditions: agar dilution, S. aureus Col (Meth^R) (lac^-)
Summary of the method: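 Log-phase isolates were spot-inoculated at about 10^4 cfu onto Mueller-Hinton agar carrying duplicate two-fold compound levels, 128 μg/mL to ≤0.25 μg/mL, following NCCLS (1991). Plates were read after 16-20 h at 35°-36° C. The lowest growth-inhibiting concentration gave the MIC (μg/ml).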

E. faecalis ATCC 29212 = experiment: MIC by agar dilution, E. faecalis ATCC 29212; type: cell-based
Procedure: as §1, §2
(§3) Aliquots of antimicrobial agents were prepared in phosphate buffered saline (PBS) at pH 7.2. Tween 20 or DMSO was used as a solubilizing vehicle as needed. Standard methods of vortexing, sonicating and gentle heat were used to facilitate solubilizing the test agent. Typically, the concentration of the stock solution was 10× that of the highest drug concentration tested. A 1.28 mg/mL stock solution was used with a subsequent highest working concentration of 128 μg/mL. Serial two-fold dilutions were done through ≤0.25 μg/mL. Each drug level was tested in duplicate. Two-fold drug dilutions were done in sterile 50 mL tubes with a final drug volume of 5 mL. Upon the addition of 45 mL of molten agar, a 10-fold dilution resulted. Two, 25 mL. plates were then poured into 15×150 mm square Petri plates with grids and allowed to harden.
(§4) A control plate with a reference drug, either cefotaxime, vancomycin or imipenem, was used as the positive growth control. Stock concentrations of reference antibiotics were prepared and frozen at -80° C. Upon preparation, the control plates were sealed and stored in the refrigerator for up to 1 week prior to use; however, imipenem control plates had to be prepared just prior to use. All test plates were used within 24 hours of preparation.
(§5) Satisfactory results were obtained where the inoculum contained about 10^4 colony forming units (cfu) ±0.5 logs. Starting with pure cultures of the test isolates on agar plates, a few isolated colonies were transferred to a tube of nutrient broth and allowed to grow 4-6 hours at 35°-36° C. to reach log-phase growth. Dropwise addition of the broth culture to PBS was done to match a 0.5 McFarland turbidity standard equal to 10^8 cfu/mL. This was further diluted ten-fold in PBS to reach a working inoculum concentration of 10^7 cfu/mL. When 1 μL of the working inoculum was applied to the agar surface a concentration of about 10^4 cfu per spot was obtained.
(§6) Disposable sterile 1 μL loops were used to inoculate test plates, with each isolate in a designated grid on the agar plate. An alternate method of inoculation involved the use of a replica plater, a device with 48 steel pins allowing the simultaneous inoculation of multiple isolates. After the spots had dried, the plates were incubated at 35°-36° C. for 16-20 hours. Endpoints were assessed as the minimum inhibitory concentration (MIC) of antimicrobial agent.

S. aureus ATCC 25923 = experiment: MIC by agar dilution, S. aureus ATCC 25923; type: cell-based
Procedure: as §1, §2
(§7) Aliquots of antimicrobial agents were prepared in phosphate buffered saline (PBS) at pH 7.2. Tween 20 or DMSO was used as a solubilizing vehicle as needed. Standard methods of vortexing, sonicating and gentle heat were used to facilitate solubilizing the test agent. […]
(§8) Disposable sterile 1 μL loops were used to inoculate test plates, with each isolate in a designated grid on the agar plate. […] Endpoints were assessed as the minimum inhibitory concentration (MIC) of antimicrobial agent.

[4] = tested on: S. aureus 76 (Meth^R) (lac^+); experiment: MIC by agar dilution, S. aureus 76 (Meth^R) (lac^+); type: cell-based
Procedure: as §1, §2, §3, §4, §5, §6

[5] = tested on: S. aureus Col8A (Meth^S) (lac^-); experiment: MIC by agar dilution, S. aureus Col8A (Meth^S) (lac^-); type: cell-based; conditions: agar dilution; S. aureus Col8A (Meth^S) (lac^-)
Procedure: as §1, §2, §3, §4, §5, §6
The novel agents of this invention are notable for their enhanced activity against S. aureus Col and Enterococci (E. faecium and E. faecalis). The S. aureus Col strain is a high-level PBP2a producer, whereas S. aureus Col 8A, its isogenic partner, lacks PBP2a. […] Thus, the compounds of the present invention are effective against PBP2a-producing bacteria.

[6] = tested on: S. epidermidis ATCC 31432; experiment: MIC by agar dilution, S. epidermidis ATCC 31432; type: cell-based
Procedure: as §1, §2, §7, §8

E. faecium ATCC 35667 = experiment: MIC by agar dilution, E. faecium ATCC 35667; type: cell-based
Procedure: as §1, §2, §3, §4, §5, §6

P. aeruginosa ATCC 27853 = experiment: MIC by agar dilution, P. aeruginosa ATCC 27853; type: cell-based
Procedure: as §1, §2, §3, §4, §5, §6

E. coli ATCC 25922 = experiment: MIC by agar dilution, E. coli ATCC 25922; type: cell-based
Procedure: as §1, §2, §3, §4, §5, §6

S. haemolyticus (Meth^R) = experiment: MIC by agar dilution, S. haemolyticus (Meth^R); type: cell-based
Procedure: as §1, §2, §3, §4, §5, §6

Compound: C[C@@H](O)[C@H]1C(=O)N2C(C(=O)O)=C(SCCN=CN)C[C@H]12 [imipenem]
- activity against MRSA strains (MRSA strains): active against a few MRSA strains

Compound: N=C(N)NCCSCC(=O)N[C@@H]1C(=O)N2C(C(=O)O)=C(Sc3ccccc3CSC(=N)N)CS[C@H]12 [Cmpd 137, (7R)-7-[((2-guanidinoethylthio)acetyl)amino]-3-(2-isothiouroniummethylphenylthio)-3-cephem-4-carboxylate, trifluoroacetic acid salt]
- Mortality ([1]; dose 0.0391 mg/kg): 8/10
- Mortality ([1]; dose 0.0781 mg/kg): 9/10
- Mortality ([1]; dose 0.1562 mg/kg, trifluoroacetic acid salt): 7/10 and 9/10
- Mortality ([1]; dose 0.3125 mg/kg, trifluoroacetic acid salt): 5/10 and 8/10
- Mortality ([1]; dose 0.625 mg/kg, trifluoroacetic acid salt): 6/10 and 1/10
- Mortality ([1]; dose 1.25 mg/kg): 0/10
- Mortality ([1]; dose 2.5 mg/kg): 0/10
- ED50 ([1]; two equal doses, S. aureus ATCC 13709 IP challenge, trifluoroacetic acid salt, 4320 min): 0.38 mg/kg
- MIC [2]: 0.125 µg/mL
- MIC ([3]; Staphylococcus aureus, read-out: MIC): 2 µg/mL

Compound: (7R)-7-[(Phenylacetyl)amino]-3-(2,3-dihydro-2,2-dimethylbenzofuran-7-yl)-3-cephem-4-carboxylic acid [Cmpd 55]
- MIC (E. faecalis ATCC 29212): 16 µg/mL
- MIC (S. aureus ATCC 25923): < 0.25 µg/mL
- MIC [4]: 16 µg/mL
- MIC [5]: < 0.25 µg/mL
- MIC [6]: < 0.25 µg/mL
- MIC (E. faecium ATCC 35667): 8 µg/mL
- MIC (P. aeruginosa ATCC 27853): > 32 µg/mL
- MIC (E. coli ATCC 25922): > 32 µg/mL
- MIC [3]: 4 µg/mL
- MIC (S. haemolyticus (Meth^R)): 16 µg/mL
